Conditions: as compared to SEQ ID NO:73 (two cysteines substituted by serine)

SDKSHKHWYSYESKYGGS [SEQ ID NO:74]
reduction in binding affinity: 10 fold

Source: patent publication US7608581B2, “Biofunctional, antimicrobial coatings for medical devices” (Affinergy, Inc., priority 2004, dated 2009)
